Drawing on BindingDB's records for doi:10.1021/jm050654o (University of Bari Aldo Moro, 2005), this text covers EC50 for five compounds.

The EC50 is the concentration at which the effect is half-maximal.

The test in a line: Antiproliferative activity mediated by sigma 1 receptor in rat C6 glioma cells by MTT assay. Background: Formazan colour is commonly taken as a measure of viable cells.
`CCCN(CCC)CCc1ccc(OC)c(OCCc2ccccc2)c1` gave an EC50 of 10.7 µM. As for `COc1ccc2c(CCCN3CCCC(C)(C)C3)cccc2c1`, the EC50 came to 40.2 µM. As for `COc1ccc2c(CCCCN3CCCCC3)cccc2c1`, the figure is 19.4 µM. `COc1ccc2c(CCCCN3CCCC(C)(C)C3)cccc2c1` came in with an EC50 of 15 µM. With `COc1ccc2c(CCCCN3CCC(C)CC3)cccc2c1`, the EC50 came out at 25.5 µM.
